Results from PubChem BioAssay (NCI).
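Assay format: 96-well plates, 48-hour exposure. At the TGI there is no net growth.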

Legend:
Assay in all cases: growth of human tumour cells (NCI), 48 h
BT-549 breast = test system: BT-549 breast
COLO 205 colon = test system: COLO 205 colon
EKVX NSCLC = test system: EKVX NSCLC
HCC-2998 colon = test system: HCC-2998 colon
HCT-116 colon = test system: HCT-116 colon
HOP-92 NSCLC = test system: HOP-92 NSCLC
HT29 colon = test system: HT29 colon
NCI-H460 lung = test system: NCI-H460 lung
OVCAR-4 ovarian = test system: OVCAR-4 ovarian
PC-3 prostate = test system: PC-3 prostate
SF-295 CNS = test system: SF-295 CNS
SF-539 CNS = test system: SF-539 CNS
SK-MEL-28 melanoma = test system: SK-MEL-28 melanoma
SK-OV-3 ovarian = test system: SK-OV-3 ovarian
SNB-19 CNS = test system: SNB-19 CNS
SW-620 colon = test system: SW-620 colon
T-47D breast = test system: T-47D breast
U251 CNS = test system: U251 CNS
UACC-257 melanoma = test system: UACC-257 melanoma
LOX IMVI melanoma = test system: LOX IMVI melanoma

Compound	TGI (BT-549 breast)	TGI (COLO 205 colon)	TGI (EKVX NSCLC)	TGI (HCC-2998 colon)	TGI (HCT-116 colon)	TGI (HOP-92 NSCLC)	TGI (HT29 colon)	TGI (NCI-H460 lung)	TGI (OVCAR-4 ovarian)	TGI (PC-3 prostate)	TGI (SF-295 CNS)	TGI (SF-539 CNS)	TGI (SK-MEL-28 melanoma)	TGI (SK-OV-3 ovarian)	TGI (SNB-19 CNS)	TGI (SW-620 colon)	TGI (T-47D breast)	TGI (U251 CNS)	TGI (UACC-257 melanoma)	TGI (LOX IMVI melanoma)
CCn1c(-c2ccc(F)cc2)nc2c1C(=O)c1ccccc1C2=O	> 100 µM	> 100 µM	> 100 µM	> 100 µM	> 100 µM	> 100 µM	> 100 µM	> 100 µM	> 100 µM	> 100 µM	> 100 µM	> 100 µM	> 100 µM	> 100 µM	> 100 µM	> 100 µM	> 100 µM	> 100 µM	> 100 µM	
O=C1C(Cl)=C(N2C(=O)CCCC2=O)C(=O)c2ccccc21	36.2 µM	19.1 µM	33.2 µM	31.4 µM	32 µM	9.29 µM	29.2 µM	27.8 µM		41.7 µM	> 100 µM	38 µM	33.4 µM	> 100 µM		48.3 µM	95.7 µM	66.1 µM	38.7 µM	42.4 µM
CN(C)c1nc2n(CCO)c(-c3ccccc3)c(-c3ccccc3)nc-2c(=O)n1	> 100 µM	> 100 µM	> 100 µM	> 100 µM	> 100 µM	> 100 µM	> 100 µM	> 100 µM	> 100 µM	> 100 µM	> 100 µM	> 100 µM	> 100 µM	> 100 µM	> 100 µM	> 100 µM	> 100 µM	> 100 µM	> 100 µM	> 100 µM
COc1cc(C=C2N=C(c3ccccc3)N(n3c(-c4ccccc4)nc4ccccc4c3=O)C2=O)cc(OC)c1OC	32.5 µM	52.8 µM	83.5 µM	89.6 µM	48.3 µM	33.7 µM	78.1 µM	47.2 µM	96.5 µM	> 100 µM	41 µM	45.3 µM	35.5 µM	91.4 µM	72.3 µM	> 100 µM	50.2 µM		43 µM	41.3 µM
NCCCCN(CCCN)C(=O)c1ccccc1	> 100 µM	> 100 µM	> 100 µM	> 100 µM	> 100 µM	> 100 µM	> 100 µM	> 100 µM	> 100 µM	> 100 µM	> 100 µM	> 100 µM	> 100 µM	> 100 µM	> 100 µM	> 100 µM	> 100 µM	> 100 µM	> 100 µM	
O=c1oc2ccccc2c(O)c1C1c2c(c3ccccc3oc2=O)Oc2c1c(=O)oc1ccccc21	67.5 µM	> 100 µM	> 100 µM	41.1 µM	> 100 µM	> 100 µM	98 µM	31.7 µM	> 100 µM	> 100 µM			97.8 µM		> 100 µM	> 100 µM	> 100 µM	> 100 µM	> 100 µM	> 100 µM
Cn1cc(-c2cnc(-c3cn(C)c4ccccc34)cn2)c2ccccc21	> 84.7 µM	15.6 µM	> 100 µM	41.7 µM	> 100 µM	> 100 µM	36.6 µM	> 100 µM	> 100 µM	> 100 µM	11.7 µM	10.4 µM	> 79.2 µM	> 100 µM	> 100 µM	> 38.6 µM	> 100 µM	40.2 µM	> 100 µM	35.9 µM
Cc1nn(C(=O)c2ccc(Cl)cc2)c2c1C(c1cccc([N+](=O)[O-])c1)SC(N)=N2 (stereo unspecified)	> 10 µM	> 10 µM	> 10 µM	> 10 µM	> 10 µM	> 10 µM	> 10 µM	> 10 µM	> 10 µM	> 10 µM	> 10 µM	> 10 µM	> 10 µM	> 10 µM	> 10 µM	> 10 µM	> 10 µM	> 10 µM	> 10 µM	> 10 µM
Cc1cnc(-c2c[nH]c3ccccc23)nc1-c1c[nH]c2ccccc12	67.7 µM	16.8 µM	19.3 µM	15.8 µM	16.4 µM	7.21 µM	14.7 µM	14.8 µM	24.3 µM	14.2 µM	15.2 µM	30.7 µM		24 µM	24.9 µM	30.2 µM	9.15 µM	19.7 µM	20.5 µM	17.1 µM
Fc1ccc(OCc2nc3cc(C(F)(F)F)ccc3nc2-c2ccccc2)cc1	> 100 µM	> 100 µM	> 100 µM	> 100 µM	> 100 µM	> 100 µM	64.9 µM	> 100 µM	> 100 µM	> 100 µM	> 100 µM	> 100 µM	> 100 µM		> 100 µM	> 100 µM	> 100 µM	> 100 µM	> 100 µM	> 100 µM
O=C(CCCN1CCC2(CC1)NC(=O)c1ccccc1O2)c1ccc(F)cc1	> 100 µM	> 100 µM	> 100 µM	> 100 µM	> 100 µM	> 100 µM	> 100 µM	> 100 µM	> 100 µM	> 100 µM	> 100 µM	> 100 µM	> 100 µM	> 100 µM		> 100 µM	> 100 µM	> 100 µM	> 100 µM	> 100 µM
CCOP(=O)(OCC)C(N)Cc1ccc(OC)c(OC)c1 (stereo unspecified)	> 100 µM	> 100 µM		> 100 µM	> 100 µM	> 100 µM	> 100 µM	> 100 µM	> 100 µM	> 100 µM	> 100 µM	> 100 µM	> 100 µM		> 100 µM	> 100 µM	> 100 µM	> 100 µM	> 100 µM	
